pIC50: −log10 of the molar value.
Tests used:
Type in all cases: biochemical
[1] = target: T1, Itk (Homo sapiens, UniProt Q08881); assay: AlphaScreen kinase assay, Itk; settings: read-out: IC50, activity toward kinase Itk
T1 sequence (Q08881 1-620): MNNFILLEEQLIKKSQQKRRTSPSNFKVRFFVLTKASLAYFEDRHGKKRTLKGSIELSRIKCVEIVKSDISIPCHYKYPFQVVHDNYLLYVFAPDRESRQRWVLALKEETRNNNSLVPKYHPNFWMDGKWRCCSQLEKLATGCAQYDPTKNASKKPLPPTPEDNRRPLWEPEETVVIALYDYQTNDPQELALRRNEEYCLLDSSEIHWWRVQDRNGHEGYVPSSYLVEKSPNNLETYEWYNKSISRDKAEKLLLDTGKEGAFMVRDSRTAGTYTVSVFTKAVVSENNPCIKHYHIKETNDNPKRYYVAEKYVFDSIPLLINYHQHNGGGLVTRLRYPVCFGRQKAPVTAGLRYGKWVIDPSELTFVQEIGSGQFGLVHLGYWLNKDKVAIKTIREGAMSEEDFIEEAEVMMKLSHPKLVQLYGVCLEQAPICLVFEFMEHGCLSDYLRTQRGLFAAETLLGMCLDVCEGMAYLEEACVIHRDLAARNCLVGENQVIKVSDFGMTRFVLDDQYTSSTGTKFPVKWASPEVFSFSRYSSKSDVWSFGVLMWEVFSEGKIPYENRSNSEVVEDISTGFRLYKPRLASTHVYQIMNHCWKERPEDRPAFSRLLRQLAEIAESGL
In short: (§1)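 Stock 20 mM compound in DMSO, diluted 1:3 serially to 8 final concentrations. Kinase phosphorylates biotinylated peptide; donor (streptavidin) and acceptor (anti-phospho antibody) beads then associate. Reduced acceptor emission indicates inhibition.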

[2] = target: Akt3 (Homo sapiens, UniProt Q9Y243); assay: AlphaScreen kinase assay, Akt3; settings: read-out: IC50, activity toward kinase Akt3
Chain of Akt3 (Q9Y243 whole entry): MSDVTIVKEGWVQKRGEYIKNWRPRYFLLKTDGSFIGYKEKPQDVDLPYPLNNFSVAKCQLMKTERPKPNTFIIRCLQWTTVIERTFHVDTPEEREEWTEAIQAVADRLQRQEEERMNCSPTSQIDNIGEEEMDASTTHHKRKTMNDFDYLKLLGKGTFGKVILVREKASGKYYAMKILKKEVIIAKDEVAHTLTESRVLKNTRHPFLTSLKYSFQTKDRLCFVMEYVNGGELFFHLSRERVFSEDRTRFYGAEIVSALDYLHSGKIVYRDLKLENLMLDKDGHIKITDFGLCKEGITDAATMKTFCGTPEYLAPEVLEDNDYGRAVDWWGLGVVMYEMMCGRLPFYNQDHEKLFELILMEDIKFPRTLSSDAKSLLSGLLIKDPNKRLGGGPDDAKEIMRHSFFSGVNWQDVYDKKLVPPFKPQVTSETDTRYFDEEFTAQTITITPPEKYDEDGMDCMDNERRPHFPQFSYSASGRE
In short: as §1

[3] = target: T2, PKC theta (Homo sapiens, UniProt Q04759); assay: Z'-Lyte FRET kinase assay (Invitrogen), PKC theta; settings: read-out: IC50, activity toward kinase PKC theta
T2 construct: purchased Invitrogen (Carlsbad, Calif.), screening service
T2 sequence (Q04759 whole entry): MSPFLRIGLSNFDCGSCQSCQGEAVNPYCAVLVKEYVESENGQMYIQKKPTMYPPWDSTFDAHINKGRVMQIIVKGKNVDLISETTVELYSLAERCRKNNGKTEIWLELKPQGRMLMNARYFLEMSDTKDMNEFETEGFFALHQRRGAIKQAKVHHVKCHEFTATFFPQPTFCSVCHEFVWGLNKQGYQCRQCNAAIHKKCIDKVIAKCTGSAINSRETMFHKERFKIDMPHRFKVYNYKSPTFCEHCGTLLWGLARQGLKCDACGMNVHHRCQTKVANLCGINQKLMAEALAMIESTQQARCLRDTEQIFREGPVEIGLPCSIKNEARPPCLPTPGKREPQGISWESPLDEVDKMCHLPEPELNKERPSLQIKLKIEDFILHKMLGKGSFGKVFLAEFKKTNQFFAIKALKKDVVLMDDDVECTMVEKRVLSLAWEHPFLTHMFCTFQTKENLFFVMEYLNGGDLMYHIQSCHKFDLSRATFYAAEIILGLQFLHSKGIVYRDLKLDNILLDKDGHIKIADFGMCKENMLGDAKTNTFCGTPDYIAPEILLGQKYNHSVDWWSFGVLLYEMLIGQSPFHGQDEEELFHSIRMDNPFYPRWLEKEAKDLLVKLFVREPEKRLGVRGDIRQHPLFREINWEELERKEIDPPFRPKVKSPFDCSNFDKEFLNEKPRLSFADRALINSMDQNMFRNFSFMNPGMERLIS
In short: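 10 μM ATP, 2 μM peptide, 1% DMSO final; HEPES pH 7.5 buffer with MgCl2/EGTA/BRIJ-35. Kinase rxn 1 h RT, protease development 1 h RT, stop, read donor/acceptor ratio. Compound titrated.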

[4] = target: T3, Stk6 (Homo sapiens, UniProt O14965); assay: Z'-Lyte FRET kinase assay (Invitrogen), Stk6; settings: read-out: IC50, activity toward kinase Stk6
T3 construct: purchased Invitrogen (Carlsbad, Calif.), screening service
T3 sequence (O14965 1-403): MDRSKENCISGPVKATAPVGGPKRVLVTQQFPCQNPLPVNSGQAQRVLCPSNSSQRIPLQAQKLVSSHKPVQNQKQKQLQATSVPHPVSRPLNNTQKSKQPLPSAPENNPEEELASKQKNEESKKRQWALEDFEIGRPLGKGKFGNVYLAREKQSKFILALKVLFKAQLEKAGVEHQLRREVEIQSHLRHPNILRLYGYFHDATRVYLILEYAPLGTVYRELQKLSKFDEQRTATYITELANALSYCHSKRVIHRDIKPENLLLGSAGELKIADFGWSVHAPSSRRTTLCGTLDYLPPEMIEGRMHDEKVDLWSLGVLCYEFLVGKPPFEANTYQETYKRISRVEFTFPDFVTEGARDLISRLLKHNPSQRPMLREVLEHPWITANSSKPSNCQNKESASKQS

[5] = target: T4, MAP2K1 (Homo sapiens, UniProt Q02750); assay: Z'-Lyte FRET kinase assay (Invitrogen), MAP2K1; settings: read-out: IC50, activity toward kinase MAP2K1
T4 construct: purchased Invitrogen (assay run by Invitrogen)
T4 sequence (Q02750 whole entry): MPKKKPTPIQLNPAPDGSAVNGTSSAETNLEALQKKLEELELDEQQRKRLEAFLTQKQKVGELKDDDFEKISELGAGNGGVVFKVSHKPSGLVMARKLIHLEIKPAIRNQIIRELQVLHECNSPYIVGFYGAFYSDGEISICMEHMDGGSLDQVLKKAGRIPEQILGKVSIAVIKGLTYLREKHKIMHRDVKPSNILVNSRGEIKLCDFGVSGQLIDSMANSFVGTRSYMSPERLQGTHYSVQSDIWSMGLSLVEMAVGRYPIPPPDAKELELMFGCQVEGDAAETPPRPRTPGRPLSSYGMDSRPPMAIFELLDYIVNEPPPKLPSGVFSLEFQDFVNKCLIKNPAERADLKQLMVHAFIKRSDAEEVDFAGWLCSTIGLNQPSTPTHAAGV
Source text: For example, direct radiometric, indirect FRET or AlphaScreen assays may be used to assess the level of phosphorylation of a substrate in the presence of test compounds in order to determine the inhibitory affect of the compound on the kinase. […] For these assays, compounds of the invention were screened by Invitrogen using Z′-Lyte™ kinase assay.
Briefly, the Invitrogen kinase assay involves use of a specific peptide substrate optimized for each kinase, containing a fluorophore at each end that make up the FRET pair. The peptide sensitivity to proteolytic cleavage depends on phosphorylation of the peptide. Non-phosphorylated peptide is cleaved by a protease while peptide phosphorylated by the kinase is not cleaved. Cleavage of the peptide disrupts the FRET between the donor (coumarin) and acceptor (fluorescein) fluorophores, resulting in an increase in the ratio of donor emission to acceptor emission. The emission ratio of coumarin to fluorescein is used to assess the reaction progress. […] Thus, the assay involves a kinase reaction in the presence of varying concentrations of a given compound, a development reaction with site specific protease, and detection of the fluorescent emission ratio of coumarin and fluorscein. […] Reaction conditions for each kinase are determined to provide optimal reaction times, incubation temperature, kinase and ATP concentrations. Test samples are made up in 1× kinase buffer (50 mM HEPES pH 7.5, 50 mM MgCl2, 5 mM EGTA, 0.05% BRIJ-35) and compound at desired concentration prepared in DMSO such that the final DMSO is 1%. […] All kinase except for MAP2K1 were at 10 μM ATP in the kinase reaction, while MAP2K1 was at 100 μM. Samples are mixed and the kinase reaction is incubated 1 hour at room temperature, after which 5 μl of development solution is added and mixed. After incubation for another 1 hour at room temperature, 5 μl of stop reagent is added to each sample and mixed. The fluorescence signals are measured to determine the emission ratio.

[6] = target: T5, Src (Homo sapiens, UniProt P12931); assay: AlphaScreen kinase assay, Src; settings: read-out: IC50, activity toward kinase Src
T5 construct: P1144. pET-N6 BI-PTP SRC V86-L536-X; made in house
T5 sequence (P12931 with tags, fused parts or gaps): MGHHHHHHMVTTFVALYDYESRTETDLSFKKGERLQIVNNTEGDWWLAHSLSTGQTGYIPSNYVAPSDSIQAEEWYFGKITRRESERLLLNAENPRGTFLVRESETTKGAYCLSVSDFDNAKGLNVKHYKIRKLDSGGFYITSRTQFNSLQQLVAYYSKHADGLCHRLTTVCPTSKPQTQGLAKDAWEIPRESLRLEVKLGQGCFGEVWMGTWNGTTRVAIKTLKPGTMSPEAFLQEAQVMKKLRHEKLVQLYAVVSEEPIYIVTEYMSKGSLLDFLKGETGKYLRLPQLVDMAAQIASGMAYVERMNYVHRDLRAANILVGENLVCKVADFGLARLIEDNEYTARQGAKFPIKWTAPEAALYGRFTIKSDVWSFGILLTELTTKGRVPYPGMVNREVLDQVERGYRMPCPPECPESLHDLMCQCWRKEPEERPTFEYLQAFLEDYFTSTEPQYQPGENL

[7] = target: T6, c-Raf-1 (Homo sapiens, UniProt P04049); assay: AlphaScreen kinase assay, c-Raf-1; settings: read-out: IC50, activity toward kinase c-Raf-1
T6 construct: purchased Upstate Biotechnology
T6 sequence (P04049 whole entry): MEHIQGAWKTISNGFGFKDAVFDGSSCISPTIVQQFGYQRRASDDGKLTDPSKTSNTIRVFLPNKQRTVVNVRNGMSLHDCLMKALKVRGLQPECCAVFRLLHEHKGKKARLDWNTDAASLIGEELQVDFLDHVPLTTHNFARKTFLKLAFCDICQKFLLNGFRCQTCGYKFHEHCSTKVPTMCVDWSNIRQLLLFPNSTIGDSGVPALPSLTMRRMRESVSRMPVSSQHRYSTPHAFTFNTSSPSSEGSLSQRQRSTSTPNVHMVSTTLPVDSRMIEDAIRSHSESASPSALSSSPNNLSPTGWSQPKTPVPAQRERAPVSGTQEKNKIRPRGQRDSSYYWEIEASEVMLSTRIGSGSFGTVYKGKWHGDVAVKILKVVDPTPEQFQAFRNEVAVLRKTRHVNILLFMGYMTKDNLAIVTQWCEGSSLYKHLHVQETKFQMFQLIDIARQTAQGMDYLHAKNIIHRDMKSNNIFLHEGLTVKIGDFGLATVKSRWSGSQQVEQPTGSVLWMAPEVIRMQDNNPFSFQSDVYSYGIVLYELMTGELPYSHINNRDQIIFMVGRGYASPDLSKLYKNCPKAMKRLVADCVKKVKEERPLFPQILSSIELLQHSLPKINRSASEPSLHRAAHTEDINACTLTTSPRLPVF

Measured: pIC50

O=C(c1cccc(O)c1)c1c[nH]c2ncc(Br)cc12 [Compound P-0019]
≥ 5.00: [1] | [2] | [3]

Cc1ccccc1C(=O)c1c[nH]c2nccc(-c3cccc(N)c3)c12 [Compound P-0044]
≥ 5.00: [3] | [4]

CC(=O)Nc1cccc(-c2ccnc3[nH]cc(C(=O)c4ccccc4F)c23)c1 [Compound P-0070]
≥ 5.00: [3] | [4]

Nc1cccc(-c2ccnc3[nH]cc(C(=O)c4ccccc4F)c23)c1 [Compound P-0022]
≥ 5.00: [3] | [4] | [5]

O=C(c1cccc(O)c1)c1c[nH]c2nccc(Cl)c12 [Compound P-0012]
≥ 5.00: [3] | [5]

CS(=O)(=O)Nc1cccc(-c2cnc3[nH]cc(C(=O)c4cccc(O)c4F)c3c2)c1 [Compound P-0038, N-{3-[3-(2-Fluoro-3-hydroxy-benzoyl)-1H-pyrrolo[2,3-b]pyridin-5-yl]-phenyl}-methanesulfonamide]
≥ 5.00: [1] | [2] | [6] | [7]

NC(=O)c1ccc(-c2ccnc3[nH]cc(C(=O)c4cc(F)ccc4F)c23)cc1 [Compound P-0013]
≥ 5.00: [1] | [3] | [4]

CS(=O)(=O)c1cccc(-c2cnc3[nH]cc(C(=O)c4cccc(O)c4F)c3c2)c1 [Compound P-0026, (2-Fluoro-3-hydroxy-phenyl)-[5-(3-methanesulfonylphenyl)1H-pyrrolo[2,3-b]pyridin-3-yl]-methanone]
≥ 5.00: [2] | [3] | [6] | [7]

O=C(c1ccc(O)cc1Cl)c1c[nH]c2ncccc12 [Compound P-0021]
≥ 5.00: [2] | [3] | [6] | [7]

O=C(c1cccc(O)c1)c1c[nH]c2ncc(-c3cccs3)cc12 [Compound P-0196]
≥ 5.00: [1] | [2] | [6]

O=C(c1ccccc1F)c1c[nH]c2nccc(-c3ccsc3)c12 [Compound P-0051]
≥ 5.00: [3] | [4] | [5]

Cc1c(O)cccc1C(=O)c1c[nH]c2ncc(-c3ccccc3)cc12 [Compound P-0016, (3-Hydroxy-2-methyl-phenyl)-(5-phenyl-1H-pyrrolo[2,3b]pyridin-3-yl)-methanone]
≥ 5.00: [1] | [6] | [7]

NC(=O)c1ccc(-c2ccnc3[nH]cc(C(=O)c4ccccc4F)c23)cc1 [Compound P-0014]
≥ 5.00: [3] | [4] | [5]

Cc1ccc(S(=O)(=O)NCc2c[nH]c3ncccc23)cc1 [Compound P-0058]
≥ 5.00: [2] | [4] | [5]

Cc1ccccc1C(=O)c1c[nH]c2nccc(-c3cccc(NS(C)(=O)=O)c3)c12 [Compound P-0109]
≥ 5.00: [3]

O=C(c1cc(O)ccc1F)c1c[nH]c2ncccc12 [Compound P-0005]
≥ 5.00: [2] | [6] | [7] | [5]

O=C(c1cccc(O)c1F)c1c[nH]c2ncc(-c3ccccc3)cc12 [Compound P-0036, (2-fluoro-3-hydroxy-phenyl)-(5-phenyl-1H-pyrrolo[2,3-b]pyridin-3-yl)-methanone]
≥ 5.00: [1] | [2] | [6] | [7]

O=C(c1cccc(O)c1F)c1c[nH]c2ncc(Br)cc12 [Compound P-0067, (5-bromo-1H-pyrrolo[2,3-b]pyridin-3-yl)-(2-fluoro-3-hydroxy-phenyl)-methanone]
≥ 5.00: [1] | [2] | [6]

Cc1c(O)cccc1C(=O)c1c[nH]c2ncc(Br)cc12 [Compound P-0055, (5-Bromo-1H-pyrrolo[2,3-b]pyridin-3-yl)-(3-hydroxy-2-methyl-phenyl)-methanone]
≥ 5.00: [2] | [3] | [6] | [7]

Cc1ccccc1C(=O)c1c[nH]c2nccc(-c3ccc(C(N)=O)cc3)c12 [Compound P-0017]
≥ 5.00: [3] | [6] | [5]

O=C(c1cccc(O)c1)c1c[nH]c2ncccc12 [Compound P-0011]
≥ 5.00: [3] | [4] | [5]

CS(=O)(=O)c1cccc(-c2cnc3[nH]cc(C(O)c4c(F)ccc(F)c4F)c3c2)c1 (stereo not drawn) [Compound P-0020]
≥ 5.00: [1] | [3] | [4]

CC(=O)Nc1cccc(-c2cnc3[nH]cc(C(=O)c4cc(O)ccc4F)c3c2)c1 [Compound P-0001]
not listed: [1]
≥ 5.00: all other assays above

Nc1cccc(-c2ccnc3[nH]cc(C(=O)c4cc(F)ccc4F)c23)c1 [Compound P-0046]
≥ 5.00: [3] | [4] | [5]

O=C(c1cccc(O)c1)c1c[nH]c2nccc(-c3cc(F)cc(F)c3)c12 [Compound P-0039]
≥ 5.00: [3]

NC(=O)c1cccc(-c2ccnc3[nH]cc(C(=O)c4cc(F)ccc4F)c23)c1 [Compound P-0049]
≥ 5.00: [3] | [4]

O=C(c1cccc(O)c1F)c1c[nH]c2ncc(-c3cccnc3)cc12 [Compound P-0027, (2-Fluoro-3-hydroxy-phenyl)-(5-pyridin-3-yl-1H-pyrrolo[2,3-b]pyridin-3-yl)-methanone]
≥ 5.00: [1] | [2] | [6] | [7]

O=C(c1cccc(O)c1F)c1c[nH]c2ncc(-c3cccs3)cc12 [Compound P-0521, (2-fluoro-3-hydroxy-phenyl)-(5-thiophen-2-yl-1H-pyrrolo[2,3-b]pyridin-3-yl)-methanone]
≥ 5.00: [1] | [6] | [7]

O=C(c1cc(F)ccc1F)c1c[nH]c2nccc(-c3cccnc3)c12 [Compound P-0063]
≥ 5.00: [3] | [4]

CC(=O)Nc1cccc(-c2cnc3[nH]cc(C(=O)c4cccc(O)c4F)c3c2)c1 [Compound P-0035, N-{3-[3-(2-Fluoro-3-hydroxy-benzoyl)-1H-pyrrolo[2,3-b]pyridin-5-yl]-phenyl}-acetamide]
not listed: [3] | [5]
≥ 5.00: all other assays above

Cn1cc(C(F)(F)F)c(-c2ccc(S(=O)(=O)NCc3c[nH]c4ncccc34)s2)n1 [Compound P-0041]
≥ 5.00: [2] | [4] | [6] | [5]

CS(=O)(=O)Nc1cccc(-c2ccnc3[nH]cc(C(=O)c4cc(F)ccc4F)c23)c1 [Compound P-0060]
≥ 5.00: [2] | [3] | [4]

Oc1ccc(F)c(C(O)c2c[nH]c3ncc(-c4cccnc4)cc23)c1F (stereo not drawn) [Compound P-0009, 2,4-difluoro-3-[hydroxy-(5-pyridin-3-yl-1H-pyrrolo[2,3-b]pyridin-3-yl)-methyl]-phenol]
≥ 5.00: [1] | [4] | [6] | [7]

NC(=O)c1cccc(-c2cnc3[nH]cc(C(=O)c4cccc(O)c4F)c3c2)c1 [Compound P-0034, 3-[3-(2-Fluoro-3-hydroxy-benzoyl)-1H-pyrrolo[2,3-b]pyridin-5-yl]benzamide]
≥ 5.00: [1] | [2] | [6] | [7]
